Structure (SMILES)	melting point [°C]
CCC(O)(c1ccc(O)cc1)c1cccc(Cl)c1 (stereo unspecified)	132 to 134
CNC(=O)[C@@H]1C[C@@H](OCC2CC2)CN1S(=O)(=O)c1ccc(Cl)c(CBr)c1Cl	161
CC(C)(C)OC(=O)N1CCC(Nc2ccc3nc(NC(=O)c4ccc(C(C)(C)C)cc4)cn3n2)C1 (stereo unspecified)	264 to 265
Cc1c(NC(=O)c2ccccc2[N+](=O)[O-])cccc1C(F)(F)F	188 to 189
CC1=C(c2ccncc2)SC(Nc2ccccc2)C(=O)N1 (stereo unspecified)	162 to 165
Cc1csc(C(=O)C2C(=O)N(C(N)=O)c3ccc(Cl)nc32)c1 (stereo unspecified)	227 to 228
COc1ccc(-c2nc(Cl)n(C)c2-c2ccc(OC)cc2)cc1	132 to 133
CC(C)CCN1C(=O)C(NC(=O)Oc2cccc(Br)c2)C(=O)N(c2ccccc2)c2ccc(Cl)cc21 (stereo unspecified)	144 to 145
O=S1c2ccccc2Nc2nccnc21 (stereo unspecified)	261 to 263
COc1cc2ncc(C#N)c(Nc3ccc(F)c(Cl)c3)c2cc1-n1cccc1	192 to 194
CCCCOc1ccc(C(=O)c2cccc(C(=O)O)c2)c(OC)c1	144 to 145
Nc1nc(N)c(-c2cccc3ccccc23)c(C(F)(F)F)n1	224 to 226
CCOCc1nc2c(N)nc3ccccc3c2n1CC1(NC(=O)OC(C)(C)C)CCCCC1	82 to 92
CCOC(=O)c1c(C(F)(F)F)nc(C(F)(F)Cl)c(C(=O)OC)c1Cl	57.5 to 59.5
Cc1cncnc1Nc1ccc(C(=O)CC2CCN(Cc3ccccc3)CC2)cc1	211 to 213
CCOC(=O)c1c(C)nc2sc3c(c2c1-c1ccccc1)CCCC3	118 to 120
COc1ccc(CN/C=C2\C(=O)NC(=O)c3cccc(Br)c32)cc1O	204 to 206
Nc1nc(N)nc(C2CN(C(c3ccccc3)c3ccccc3)C2)n1	126 to 128
O=C(NCCCCCCOC(=O)N1CCCCC1)OC1CCN(C(=O)Oc2ccc(Oc3ccccc3)cc2)CC1	92 to 93
CCC(C)(C)C(=O)Oc1cccc2ccc(OCCOc3ccc(C(=O)C(=O)O)cc3)cc12	167 to 168
COc1ccc(C=CC2=NN(c3ccc([N+](=O)[O-])cc3)C(c3ccc(OC)c(O)c3)C2)cc1O (stereo unspecified)	215 to 217
Cc1n[nH]c2c(O)ncnc12	340
COC(=O)COc1ccc(S(=O)(=O)c2ccc(O)cc2)cc1	159 to 161
CCCNC(=O)Nc1c(C(=O)c2ccccc2)[nH]c2cc(Cl)ccc12	234 to 236
CCCCCCCCCCOc1ccc(-c2nc(-c3c(Cl)cccc3Cl)nn2C)cc1	60 to 64
CC(C)(CO)NS(=O)(=O)c1cccc(NC(=O)c2cnn3c(C(F)(F)F)cc(-c4ccc(Cl)c(Cl)c4)nc23)c1	269

Structure (SMILES)	melting point [°C]
Cc1nc(NC(=O)Nc2ccccc2)sc1C(=O)NCc1ccccc1	> 300
O=C(O)Cc1cccc(Oc2ccccc2O)c1O	91 to 93
O=C(O)c1c[nH]c(Sc2ccc(Cl)c(Cl)c2)c1	156 to 159
COc1ccc2c(c1)c(CC(=O)N(O)C(C)C)c(C)n2C(=O)c1ccc(Cl)cc1	198 to 199
Cc1c(Br)cccc1N1Cc2ccc(C(C)(C)C)cc2C1=O	120 to 122
COc1ccc(OCC2(CI)CC2)cc1	53 to 54
O=C1c2cccc(O)c2N=CC2CCCN12 (stereo unspecified)	146 to 148
COc1cccc2c1[nH]c1c(C(=O)O)cccc12	252
CCCCOc1ccc(C(C)N(O)C(N)=O)cc1 (stereo unspecified)	137 to 138
CC(=O)NC[C@H]1CN(c2ccc(N3CCC(n4ccnc4)CC3)c(F)c2)C(=O)O1	160 to 162
CNC(=O)CC1CSc2c(C(=O)OC(C)C)ccn21 (stereo unspecified)	117 to 119
Nc1ccc(N2C(=O)c3ccc(Cl)cc3C2=O)c(CO)c1	228 to 230
O=C1c2c(F)ccc(F)c2C(=O)N1CCN1CCC(c2noc3cc(F)ccc23)CC1	144 to 145
NNC(=S)C12CC3CC(CC(C3)C1)C2	204 to 206
O=C(O)CN1CC(=O)NC1=NN=Cc1ccccc1	218 to 222
CC(C)CCCC(C)C1CCC2C3C=CC4=CC(=O)C5OC5C4(C)C3CCC12C (stereo unspecified)	107 to 109
CCCn1cnc2c1c(=O)n(CCCCC(C)=O)c(=O)n2CC	81 to 82
O=C(O)CNC(=O)Nc1cccc(C(=O)O)c1	196 to 197
N#Cc1nn(-c2c(Cl)cc(C(F)(F)F)cc2Cl)cc1C(=O)C(F)(F)C(F)(F)F	120
CCOC(=O)Nc1ccc2c(c1C=O)OCO2	123
CC(=O)C1CCC2C3CCC4CC(O)C(N5CCOC(c6ccccc6)(c6ccccc6)C5)CC4(C)C3C(=O)CC12C (stereo unspecified)	248 to 250
CCOC(=O)c1nn(CC)c2nccc(O)c12	85 to 87
OC1CSC(Oc2cnc(-c3ccncc3)c(Cl)c2)C(O)C1O (stereo unspecified)	226
CC(C)(Sc1cc(C(C)(C)C)c(O)c(C(C)(C)C)c1)Sc1cc(C(C)(C)C)c(OCCO)c(C(C)(C)C)c1	146 to 147
COc1ccc(Nc2ncc(Br)c(Nc3ccc(OC)c(OC)c3OC)n2)c(OC)c1OC	186 to 191
CCn1nc2c(N)nc3ccccc3c2c1CC(C)(C)NCCS(C)(=O)=O	155 to 157

Structure (SMILES)	melting point [°C]
CCOc1cc(NC(C)=O)c(Cl)cc1C(=O)NCC1CN(Cc2ccc(F)cc2)CCO1 (stereo unspecified)	161 to 163
CSc1ncc(Cc2cccnc2)c(=S)[nH]1	211 to 213
COC(=O)C=Cc1cc(F)cc(Br)c1	95 to 96
COC(=O)c1cccc(-c2nc(CCl)c(C)o2)c1	119 to 120
Cc1cc2c(cc1Cl)NC(NC(C)C)=NS2(=O)=O	120 to 122
CCN(CC)CCCC(=O)c1ccc2c(c1)Cc1cc(C(=O)CCCN(CC)CC)ccc1O2	63 to 65
C=CCSc1nnc(OC)c2c1CCCC2	46 to 48
COc1cc(-c2cc(N)n(C)c3nc(N)nc(=O)c2-3)cc(OC)c1OC	> 300
CNc1ncc2c(=O)n(C)c(=O)n(C)c2n1	260
CC(OC(=O)C1CCNCC1)C(c1ccccc1)(c1ccccc1)c1ccccc1 (stereo unspecified)	154 to 155
CCOC(=O)C(CCc1ccccc1)N[C@H]1CSC(c2ccccc2)N(CC(=O)O)C1=O (stereo partly specified)	47 to 52
CN1CCN(C2=Cc3ccccc3Oc3ccccc3C2)CC1	127
CC(CCl)n1c(C(F)(F)F)nc2cc(F)c(-n3c(=O)cc(C(F)(F)F)n(C)c3=O)cc21 (stereo unspecified)	93 to 95
CC(=O)ON1C(C)(C)CC(OC(=O)c2cccc(C(=O)OC3CC(C)(C)N(OC(C)=O)C(C)(C)C3)c2)CC1(C)C	98 to 101
CCCOc1cccc(NC(=O)c2ccccc2C)c1	92 to 94
CCCOCCSc1ccc(-c2ccc3c(c2)C=C(C(=O)Nc2ccc(CN(C)C4CCOCC4)cc2)CCS3(=O)=O)cc1	198 to 200
COc1cc(N)c(Cl)cc1C(=O)NCC1CCN(CCCCCOc2ccc(F)cc2)CC1	105 to 107
O=C1OCc2cc([N+](=O)[O-])c(Oc3ccc(F)cc3F)cc21	164 to 166
COC(=O)c1ccc(-c2cc(C(=O)NC3CC3)cc(F)c2C)c(C(=O)O)c1	217 to 222
COc1nc2c(Cl)c(Cl)c(Cl)c(Cl)c2n1COC(CO)CO	192
CCCCCCCCCCCCNS(=O)(=O)c1cccc(C(F)(F)F)c1	65 to 68
COc1cc(N2CCN(c3c(C)c(C)c4c(c3C)CC(C)(C)O4)CC2)ccc1Cl	168 to 171
CCCNC(=O)NCc1ccc2c(c1)C(=O)N(C1CCC(=O)NC1=O)C2=O (stereo unspecified)	166 to 168
CCCCCOC(=O)c1ccc(S(N)(=O)=O)cc1	96 to 98
FCC=Cc1ncn(C(c2ccccc2)(c2ccccc2)c2ccccc2)n1	149
Nc1cccc(NCCCN2CCOCC2)c1	61 to 65

Structure (SMILES)	melting point [°C]
COc1ccc(CN(C(=O)C2CCCc3ccc(OC)cc32)c2ccc(C(C)C)cc2)cc1 (stereo unspecified)	83 to 85
C=Cc1ccc2c(n1)COC(c1ccccc1)O2 (stereo unspecified)	54 to 57
CCC(=O)C1=C(O)CC(c2cc3c(cc2[N+](=O)[O-])OCO3)CC1=O (stereo unspecified)	139
N#Cc1ccc(C=CCc2ccc(C#N)cc2)cc1	98 to 105
Cc1nc2cc(N(C)C(=O)c3ccc(Cl)cc3Cl)ccc2n1C	245 to 247
O=Cc1ccc2[nH]c(C(=O)OCc3ccccc3)cc2c1	172
CS(=O)(=O)c1ccc(-c2cnn(CC(F)(F)F)c(=O)c2Sc2nc[nH]n2)cc1	197 to 200
Cc1cc2c(c(C)c1O)CCC(C)(C#N)O2 (stereo unspecified)	135
COC(=O)c1nc(-c2ccccc2)ccc1O	100 to 101
CCOC(=O)c1c[nH]c2c1-c1ncccc1CCC2	96 to 98
CN1CCC2(CC1)C(=O)N(C)c1ccc(Cl)cc1C(c1ccccc1)N2C (stereo unspecified)	80 to 85
CCC(=O)Oc1cc(OC)cc(OC)c1C(=O)C=Cc1cccn1C	108
O=C1CCC(N2CCN(c3ccccn3)CC2)CC1	142 to 144
C=CC1(NC(=O)OC)CC(C)(C)CC(C)(C)C1	61 to 63
CCn1cc(C(=O)O)c(=O)c2c(F)c(F)c(N3CCNC(c4ccsc4)C3)c(F)c21 (stereo unspecified)	221 to 222
Nc1c(-n2cncn2)cnn1-c1c(Cl)cc(C(F)(F)F)cc1Cl	170 to 174
CC(C)(C(=O)Nc1cccc(C(F)(F)F)c1)N1COC(C(F)F)=C(c2ccccc2)C1=O	58 to 60
N#Cc1cccc(S(=O)(=O)n2c(=O)[nH]c3cc(Cl)ccc3c2=O)c1	225 to 226
CCN(CC)C(=O)n1cnc(S(=O)(=O)c2cc(F)c(C#N)cc2F)n1	98
CN(C)C=Nc1ncc(-c2ccc(C(F)(F)F)cc2)cc1C(F)(F)F	114
O=c1[nH]c(Cl)nc2c1ncn2COCCO	> 310
CC1(C)CCC(C)(C)c2cc(C(O)COc3ccc(C(=O)NN4CCCCC4)c(O)c3)ccc21 (stereo unspecified)	124
COc1cc2c(cc1[N+](=O)[O-])NC(=O)CN(C(=O)OCc1ccccc1)C2	191

Source: a melting point compilation (Tetko et al.; mined from patent text by program, amines drawn as free bases though some values may be those of a salt)
